# Measured values taken from patent US20260345834A1, “NIR-LIGHT ACTIVATABLE NANOGEL DELIVERY SYSTEM” (THE BOARD OF TRUSTEES OF THE UNIVERSITY OF ILLINOIS, priority 2022, published 2026).
# What was measured:
# Assay type in all cases: physicochemical
# [1] = Absorption spectrum and extinction coefficient in DMSO
# Description: With the various components in hand, we turned our attention to testing whether the amide moiety would impact the photophysical properties of the cyanine core. First, we analyzed the absorption spectrum and measured the extinction coefficient of Cy780-Acryl. Compared to the Cy7-Cl reference in DMSO, the λmax (831 nm cf. 793 nm) and extinction coefficients (1.11×10^5 M^−1cm^−1 cf. 1.23×10^5 M^−1cm^−1) were similar. Next, we evaluated the photostability of the crosslinker. When Cy780-Acryl (as well as Cy780-Acetamido) was irradiated with a LED light source at 780 nm (300 mW power output, 47.3 μW/mm^2 maximum irradiance), we found complete degradation of the molecule after only 25 minutes based on the disappearance of the NIR absorbance band (FIG. 2). […] Of note, when dissolved oxygen was removed prior to the initiation of photobleaching, we found the change in absorbance to be minimal, supporting the proposed dioxetane mechanism (FIG. 4). Indeed, the anticipated carbonyl fragmentation products were detected via LC-MS when samples were irradiated in the presence of oxygen (FIG. 5).
# ^1H and ^13C NMR spectra were acquired on a Varian 500 or Carver B500 spectrometer. […] Spectra were visualized and analyzed using MestReNova (version 14.2) and referenced to trace non-deuterated solvent. […]
# [2] = Photobleaching under 780 nm LED irradiation (NIR absorbance)
# Protocol: FIG. 2. […] Time points=0, 15, 30 mins. Samples were irradiated with a LED light source at 780 m, (300 mW power output, 47.3 μW/mm^2 maximum irradiance).
# FIG. 3. Absorption measurements of a 25 μM solution of a) Cy7-Cl and b) Cy780-Acryl when irradiated with a 780 nm LED light. Time points=0, 15, 30 mins. Samples were irradiated with a LED light source at 780 m, (300 mW power output, 47.3 μW/mm^2 maximum irradiance).
# FIG. 4. Absorption measurements of a NIR-nanogel sample without dissolved oxygen when irradiated with a 780 nm LED light. Time points=0, 15, 30, 45, 60, 75, 90 mins. Samples were irradiated with a LED light source at 780 m, (300 mW power output, 47.3 μW/mm^2 maximum irradiance).
# Time points=0, 15, 30, 45, 60, 90, 120, 150, 180 mins. b) Diameter of NIR-nanogels with and without NIR light irradiation measured via dynamic light scattering (left) and scanning electron microscopy (right). […] (n=300 for SEM) Scale bar represents 500 nm. e) Normalized absorbance of nanogels exposed to biologically relevant reactive species. f) Normalized absorbance of nanogels suspended in Britton-Robinson buffer (pH 4.2 to 12.0). […]
# With the various components in hand, we turned our attention to testing whether the amide moiety would impact the photophysical properties of the cyanine core. First, we analyzed the absorption spectrum and measured the extinction coefficient of Cy780-Acryl. […]
# [3] = Passive release of encapsulated cargo via dialysis; settings: drug-loaded NIR-nanogel, dialysis against MilliQ/DI water; for passive leeching of cargo (concentration loss): three hours
# Protocol: FIG. 10A-D. Passive release of encapsulated a) cisplatin b) gefitinib c) GW9662 and d) Paclitaxel via dialysis for 0, 1, 2, and 4 hours against DI water.
# After extensive screening, we obtained an optimized procedure that yielded reliable encapsulation results for each drug. We discovered that slow addition (versus bolus addition) of the drug to NIR-nanogel samples was essential to maintain a homogeneous suspension of the particles in solution. Further, the inclusion of at least 10% ethanol as a solubilizing co-solvent was necessary for drug encapsulation. […] After removal of non-encapsulated drug, we established a method to assess passive leeching of the contents by dialyzing the drug-loaded sample against MilliQ water. Small aliquots were removed at various time points and compared to the initial cargo concentration. […] In general, the extent of passive cargo loss was determined by placing a photobleached sample of each drug-loaded NIR-nanogel in 3 kDa MWCO dialysis tubing for dialysis against DI water. Aliquots were taken to determine the absorbance at various time points for comparison against the corresponding calibration curve.
SMILES,passive release of cargo (result in words) [3],passive leeching of cargo (concentration loss) [3],also measured
C=CC(=O)Nc1ccc2c(c1)C(C)(C)C(/C=C/C1=C(Cl)C(=C/C=C3/N(CC)c4ccc(NC(=O)C=C)cc4C3(C)C)/CCC1)=[N+]2CC [Cy780-Acryl],,,"extinction coefficient [1]: 111000 M⁻¹ cm⁻¹; λmax [1]: 831 nm; change in absorbance on irradiation without dissolved oxygen ([2]; 780 nm LED, dissolved oxygen removed prior to photobleaching): minimal; time to complete degradation (disappearance of the NIR absorbance band) ([2]; LED 780 nm, 300 mW power output, 47.3 μW/mm^2 maximum irradiance): 25 min"
O=C(Nc1ccccc1)c1cc([N+](=O)[O-])ccc1Cl [GW9662],no passive release,,
N.N.[Cl][Pt][Cl] [cisplatin],,~ 50%,
COc1cc2ncnc(Nc3ccc(F)c(Cl)c3)c2cc1OCCCN1CCOCC1 [gefitinib],,~ 6%,
CC(=O)O[C@H]1C(=O)[C@@]2(C)[C@H]([C@H](OC(=O)c3ccccc3)[C@]3(O)C[C@H](OC(=O)[C@H](O)[C@@H](NC(=O)c4ccccc4)c4ccccc4)C(C)=C1C3(C)C)[C@]1(OC(C)=O)CO[C@@H]1C[C@@H]2O [paclitaxel],minimal leeching,,
